Consider 3 compounds from publication PMC6151383 (Molecules : A Journal of Synthetic Chemistry and Natural …, 2017).

In brackets after ≈: the same amount, converted by molar mass. Where two headings read alike, the source gives them in different places. Some results are limits rather than exact numbers.

The test system of data set [1] is Aspergillus fumigatus 231. In words: Antifungal microdilution broth MIC, A. fumigatus. Type of data set: cell-based. The note with it: Aspergillus fumigatus, 231; 48 h incubation; read-out: MIC AF 48 h. (Dilution methods test growth across graded concentrations, often in twofold steps.)
Data set [2] deals with Escherichia coli CCM 4517. In words: Antibacterial microdilution broth MIC, E. coli. Type of data set: cell-based. As to conditions: Escherichia coli, CCM4517; 48 h incubation; read-out: MIC EC 48 h.
Data set [3] concerns Staphylococcus epidermidis H 6966/08. The data set is described as follows: Antibacterial microdilution broth MIC, S. epidermidis. In kind it is cell-based. As to conditions: Staphylococcus epidermidis.
Data set [4] deals with Trichophyton interdigitale 445. The data set is described as follows: Antifungal microdilution broth MIC, T. interdigitale. In kind it is cell-based.
In data set [5] the test system is ESBL-positive Klebsiella pneumoniae J 14368/08.
The test system of data set [6] is Candida krusei E28. In words: Antifungal microdilution broth MIC, C. krusei. The note with it: Pichia kudriavzevii, E28; 48 h incubation; read-out: MIC CK 48 h. Type of data set: cell-based.
In data set [7] the test system is Lichtheimia corymbifera 272. In words: Antifungal microdilution broth MIC, L. corymbifera. As to conditions: Lichtheimia corymbifera, 272; 48 h incubation; read-out: MIC LC 48 h. Type of data set: cell-based.
Data set [8] concerns Staphylococcus aureus CCM 4516/08. The data set is described as follows: Antibacterial microdilution broth MIC, S. aureus. As to conditions: Staphylococcus aureus, CCM4516; 48 h incubation; read-out: MIC SA 48 h. In kind it is cell-based.
The test system of data set [9] is Klebsiella pneumoniae D 11750/08.
The test system of data set [10] is M. kansasii 6509/96. In words: In vitro antimycobacterial MIC, M. kansasii clinical isolate. In kind it is cell-based. The note with it: Mycobacterium kansasii.
For data set [11], the system named is Candida albicans ATCC 44859. In words: Antifungal microdilution broth MIC, C. albicans. The note with it: ATCC44859, 48 h incubation, read-out: MIC CA 48 h. In kind it is cell-based.
Data set [12] deals with Mycobacterium tuberculosis 331/88 (H37Rv). The data set is described as follows: In vitro antimycobacterial MIC, M. tuberculosis. In kind it is cell-based.
The test system of data set [13] is Mycobacterium avium 330/88. The data set is described as follows: In vitro antimycobacterial MIC, M. avium. In kind it is cell-based.
Data set [14] has as its system Candida tropicalis 156. In words: Antifungal microdilution broth MIC, C. tropicalis. As to conditions: Candida tropicalis, 156; 48 h incubation; read-out: MIC CT 48 h. In kind it is cell-based.
In data set [15] the test system is Candida glabrata 20/I. The data set is described as follows: Antifungal microdilution broth MIC, C. glabrata. Type of data set: cell-based. As to conditions: Nakaseomyces glabratus, 48 h incubation, read-out: MIC CG 48 h.
Data set [16] deals with Pseudomonas aeruginosa CCM 1961. In words: Antibacterial microdilution broth MIC, P. aeruginosa. Type of data set: cell-based. As to conditions: Pseudomonas aeruginosa, CCM1961; 48 h incubation; read-out: MIC PA 48 h.
In data set [17] the test system is Trichosporon asahii 1188. In words: Antifungal microdilution broth MIC, T. asahii. In kind it is cell-based. As to conditions: Trichosporon asahii, 1188; 48 h incubation; read-out: MIC TA 48 h.
Data set [18] has as its system Enterococcus faecalis J 14365/08. In words: Antibacterial microdilution broth MIC, E. faecalis. In kind it is cell-based. The note with it: Enterococcus faecalis, J14365/08; 48 h incubation; read-out: MIC EF 48 h.
Data set [19] relates to Mycobacterium kansasii 235/80. In words: In vitro antimycobacterial MIC, M. kansasii 235/80. In kind it is cell-based.
[20] abbreviates: 6509/96, 168 h, 7 d incubation, read-out: MIC M. kansasii 6509/96 7 d.
Setting [21] is: 6509/96, 336 h, 14 d incubation, read-out: MIC M. kansasii 6509/96 14 d.
Where [22] appears, read: 6509/96, 504 h, 21 d incubation, read-out: MIC M. kansasii 6509/96 21 d.
Where [23] appears, read: 336 h, 14 d incubation, read-out: MIC Mtb. 331/88 14 d.
The mark [24] stands for this setting: 504 h, 21 d incubation, read-out: MIC Mtb. 331/88 21 d.
The mark [25] stands for this setting: 330/88, 336 h, 14 d incubation, read-out: MIC M. avium 330/88 14 d.
Setting [26] is: 330/88, 504 h, 21 d incubation, read-out: MIC M. avium 330/88 21 d.
Setting [27] is: 235/80, 168 h, 7 d incubation, read-out: MIC M. kansasii 235/80 7 d.
Setting [28] is: 235/80, 336 h, 14 d incubation, read-out: MIC M. kansasii 235/80 14 d.
[29] abbreviates: 235/80, 504 h, 21 d incubation, read-out: MIC M. kansasii 235/80 21 d.

On to `COc1ccc(O)c(C=Nc2ccc(S(=O)(=O)Nc3ncccn3)cc2)c1` [Compound 2h, 4-[(2-Hydroxy-5-methoxybenzylidene)amino]-N-(pyrimidin-2-yl)benzenesulfonamide], for which the MIC is > 500 µM in data set [1]; > 500 µM in data set [2]; 62.5 µM (≈ 24 µg/mL) in data set [3] (H6966/08, 24 h, read-out: MIC SE 24 h); 62.5 µM (≈ 24 µg/mL) in [3] (H6966/08, 48 h, read-out: MIC SE 48 h); 62.5 µM (≈ 24 µg/mL) in data set [4] (Trichophyton interdigitale, 445, 72 h, read-out: MIC TI 72 h); 62.5 µM (≈ 24 µg/mL) in data set [4] (Trichophyton interdigitale, 445, 120 h, read-out: MIC TI 120 h). Besides, the MIC was 62.5 µM (≈ 24 µg/mL) in data set [4] (Trichophyton interdigitale, 445, read-out: MIC for T. interdigitale); > 500 µM in data set [6]; > 500 µM in data set [7]; 500 µM (≈ 192 µg/mL) in data set [8]; 16 µM (≈ 6.15 µg/mL) in data set [10] (setting [20]); 16 µM (≈ 6.15 µg/mL) in data set [10] (setting [21]). The MIC in [10] (setting [22]) is 32 µM (≈ 12.3 µg/mL); in [11], 500 µM (≈ 192 µg/mL); in data set [12] (setting [23]) it was 32 µM (≈ 12.3 µg/mL); in [12] (setting [24]), 62.5 µM (≈ 24 µg/mL); in [13] (setting [25]), 125 µM (≈ 48.1 µg/mL); in data set [13] (setting [26]) it was 125 µM (≈ 48.1 µg/mL). Besides, the MIC in data set [14] was 500 µM (≈ 192 µg/mL); in [15], 500 µM (≈ 192 µg/mL); in data set [16], 500 µM (≈ 192 µg/mL); in [17], 500 µM (≈ 192 µg/mL); in [18], > 500 µM; in data set [19] (setting [27]), 16 µM (≈ 6.15 µg/mL). The figures for the MIC in [19] (setting [28]) and in data set [19] (setting [29]) were 32 µM (≈ 12.3 µg/mL) and 62.5 µM (≈ 24 µg/mL), respectively. The “MIC KP-E 24 h” value in data set [5] (24 h) was >500 µM. For the same compound, the “MIC KP-E 48 h” value in data set [5] (48 h) is >500 µM. In addition, the “MIC KP 24 h” value in data set [9] (24 h) is reported as >500 µM. Further, in data set [9] (48 h), the “MIC KP 48 h” value is >500 µM.
As to `OC(Cn1cncn1)(Cn1cncn1)c1ccc(F)cc1F` [FLU, fluconazole, reference compound], the MIC in [1] is > 500 µM; in [4] (Trichophyton interdigitale, 445, 72 h incubation, read-out: MIC TI 72 h), 7.81 µM (≈ 2.39 µg/mL); in data set [4] (Trichophyton interdigitale, 445, 120 h incubation, read-out: MIC TI 120 h), 125 µM (≈ 38.3 µg/mL); in data set [6], 250 µM (≈ 76.6 µg/mL); in data set [7], > 500 µM; in data set [11], 0.24 µM (≈ 0.0735 µg/mL). For the same compound, the MIC in data set [14] is > 500 µM; in data set [15], 500 µM (≈ 153 µg/mL); in [17], 500 µM (≈ 153 µg/mL).
As for `NNC(=O)c1ccncc1` [INH, isoniazid, reference compound], the MIC in data set [10] (setting [20]) was 8 µM (≈ 1.1 µg/mL); in data set [10] (setting [21]), 8 µM (≈ 1.1 µg/mL); in data set [10] (setting [22]), 8 µM (≈ 1.1 µg/mL); in data set [12] (setting [23]) it was 0.5 µM (≈ 0.0686 µg/mL); in data set [12] (setting [24]), 1 µM (≈ 0.137 µg/mL); in data set [13] (setting [25]) it was > 250 µM. The MIC in data set [13] (setting [26]), in [19] (setting [27]), in data set [19] (setting [28]) and in data set [19] (setting [29]) was > 250 µM each time.
